Test results published in EP2628734A2, “5-AMINO-1,2,4-THIADIAZOLE DERIVATIVES” (Federalnoe Gosudarstvennoe Bydzhetnoe Uchrezhdenie Nauki …, priority 2010, dated 2012).

Test system: P2 synaptosomal fraction from rat brain cortex
Assay: glutamate-induced uptake of 45Ca2+ isotope into synaptosomes
Type: cell-based
Text: Neuroprotective action of new compounds was studied in P2 synaptosomal fraction from rat brain cortex. 5-amino-3-(2-nitroxypropyl)-1,2,4-thiadiazole derivatives were studied in the test on glutamate-induced uptake of ^45Ca^2+ isotope into synaptosomes.

## CC(Cc1nsc(N2CCN(c3ccccn3)CC2)n1)O[N+](=O)[O-] (centres unmarked) [1-[3-(2-Nitroxypropyl)-[1,2,4]-thiadiazol-5-yl]-4-pyridin-2-yl-piperazine]
glutamate-induced uptake of ^45Ca^2+ into synaptosomes
  IC50: 16.6 µM
glutamate-induced uptake, concentration of 100 µM, read-out: inhibition of the uptake of ^45Ca^2+ into synaptosomes vs. a control
  inhibition at 100 µM: 98%
